{"source": "ChEMBL document CHEMBL1201862", "about": "“PubChem BioAssay data set” (2004)", "key": {"[1]": {"target": "T1, Oxysterols receptor LXR-beta (Homo sapiens, UniProt P55055)", "T1 sequence (P55055 whole entry)": "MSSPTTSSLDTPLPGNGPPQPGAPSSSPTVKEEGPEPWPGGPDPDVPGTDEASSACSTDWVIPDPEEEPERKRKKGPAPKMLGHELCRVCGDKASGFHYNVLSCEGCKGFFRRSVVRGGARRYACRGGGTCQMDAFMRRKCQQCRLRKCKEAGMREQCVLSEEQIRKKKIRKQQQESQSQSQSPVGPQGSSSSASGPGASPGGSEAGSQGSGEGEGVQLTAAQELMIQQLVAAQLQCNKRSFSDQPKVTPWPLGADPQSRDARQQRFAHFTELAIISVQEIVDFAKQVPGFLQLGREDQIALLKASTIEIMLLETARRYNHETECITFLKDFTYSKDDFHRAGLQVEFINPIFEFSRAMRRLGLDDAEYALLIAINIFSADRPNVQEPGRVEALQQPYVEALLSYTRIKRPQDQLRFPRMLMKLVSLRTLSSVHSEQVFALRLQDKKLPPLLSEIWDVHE", "assay": "LXR agonists, Gal4 luciferase reporter, dose response, counter-screen for ssDAF-12 agonist project, cell-based, luminescence, HEK293, S. stercoralis campaign (AID 720737)", "type": "functional", "details": "read-out: IC50 (the source's name)"}, "[2]": {"assay": "Luminescence-based cell-based high throughput dose response assay to identify activators of the DAF-12 from the parasite S. stercoralis (ssDAF-12).", "type": "functional"}, "[3]": {"assay": "hepatoma cell viability loss – CellTiter-Glo luminescence, dry powder, set 20, cytotoxicity control, dose response (AID 1117291)", "type": "functional, cell-based", "details": "HepG2"}, "[4]": {"assay": "lung carcinoma cell viability loss – CellTiter-Glo luminescence, dry powder, set 18, cytotoxicity control, dose response (AID 1117290)", "type": "functional, cell-based", "details": "A549"}, "[5]": {"assay": "viability inhibitors of stage V gametocytes – luminescence, dose response (AID 1117278);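 further: gametocytes exposed to compound for 24 hours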", "type": "functional, cell-based"}, "Cytochrome P450 1A2": {"target": "T2, Cytochrome P450 1A2 (Homo sapiens, UniProt P05177)", "T2 sequence (P05177 whole entry)": "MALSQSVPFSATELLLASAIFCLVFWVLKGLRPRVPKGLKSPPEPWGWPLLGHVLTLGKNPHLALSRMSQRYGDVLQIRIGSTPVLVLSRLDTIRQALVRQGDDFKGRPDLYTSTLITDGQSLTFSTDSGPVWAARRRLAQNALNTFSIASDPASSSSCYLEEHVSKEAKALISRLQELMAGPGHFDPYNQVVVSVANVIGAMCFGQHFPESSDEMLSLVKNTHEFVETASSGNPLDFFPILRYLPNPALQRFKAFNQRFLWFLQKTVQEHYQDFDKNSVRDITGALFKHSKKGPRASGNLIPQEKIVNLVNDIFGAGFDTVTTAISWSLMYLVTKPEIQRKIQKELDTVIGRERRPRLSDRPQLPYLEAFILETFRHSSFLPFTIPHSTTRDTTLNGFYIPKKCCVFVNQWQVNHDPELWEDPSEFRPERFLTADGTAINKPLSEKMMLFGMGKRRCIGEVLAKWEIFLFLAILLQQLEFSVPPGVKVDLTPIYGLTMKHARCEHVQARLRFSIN"}, "[6]": {"assay": "viability loss in human Jurkat cells – cell-based, luminescence, cytotoxicity control for P. falciparum gametocyte viability project, dose response (AID 1117277);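 further: potency reflects loss of cellular ATP meaning fewer viable cells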", "type": "functional"}, "Cytochrome P450 2C19": {"target": "Cytochrome P450 2C19 (Homo sapiens, UniProt P33261)", "sequence (P33261 whole entry)": "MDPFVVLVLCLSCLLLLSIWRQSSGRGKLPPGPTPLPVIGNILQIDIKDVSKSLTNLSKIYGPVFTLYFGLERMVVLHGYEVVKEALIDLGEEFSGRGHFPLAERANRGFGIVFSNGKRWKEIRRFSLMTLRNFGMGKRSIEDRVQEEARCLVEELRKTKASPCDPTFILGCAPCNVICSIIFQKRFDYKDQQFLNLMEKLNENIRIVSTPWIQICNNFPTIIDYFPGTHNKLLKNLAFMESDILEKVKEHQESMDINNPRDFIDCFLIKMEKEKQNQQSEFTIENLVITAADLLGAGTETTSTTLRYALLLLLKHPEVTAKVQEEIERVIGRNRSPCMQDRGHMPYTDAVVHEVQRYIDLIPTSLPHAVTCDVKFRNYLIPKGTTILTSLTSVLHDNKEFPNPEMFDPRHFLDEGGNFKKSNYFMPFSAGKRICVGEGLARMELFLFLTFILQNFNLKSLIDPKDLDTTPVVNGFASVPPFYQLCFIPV", "assay": "Cytochrome panel assay with activity outcomes. Panel member name: p450-cyp2c19 Compounds with AC50 equal or less than 10 uM are considered active", "type": "functional"}, "[7]": {"assay": "loss of viability in HepG2 cells – cell-based, CellTiter-Glo, cherry-picked, cytotoxicity control for Shn3 inhibitor project, dose response (AID 624134)", "type": "functional"}, "HEK293 [8]": {"test_system": "HEK293", "assay": "cells", "details": "Homo sapiens"}, "HEK293 [9]": {"test_system": "HEK293", "assay": "cells", "details": "Homo sapiens", "remark": "listed apart in the source"}, "[10]": {"target": "T3, DNA repair protein RAD52 homolog (Homo sapiens, UniProt P43351)", "T3 sequence (P43351 whole entry)": "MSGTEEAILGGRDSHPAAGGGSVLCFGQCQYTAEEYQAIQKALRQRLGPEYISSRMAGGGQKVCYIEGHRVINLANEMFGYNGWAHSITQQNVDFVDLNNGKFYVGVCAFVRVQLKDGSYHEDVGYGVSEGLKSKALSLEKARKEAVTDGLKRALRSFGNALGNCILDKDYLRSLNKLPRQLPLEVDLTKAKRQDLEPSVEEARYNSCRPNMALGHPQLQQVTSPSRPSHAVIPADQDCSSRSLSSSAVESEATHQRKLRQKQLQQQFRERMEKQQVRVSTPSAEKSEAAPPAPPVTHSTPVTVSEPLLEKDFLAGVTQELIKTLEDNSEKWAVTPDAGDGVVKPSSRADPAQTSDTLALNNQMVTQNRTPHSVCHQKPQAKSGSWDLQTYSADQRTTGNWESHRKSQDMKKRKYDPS", "type": "functional, biochemical"}, "[11]": {"target": "E3 ubiquitin-protein ligase UHRF1 (Homo sapiens, UniProt Q96T88)", "sequence (Q96T88 whole entry, the tested form may be a part)": "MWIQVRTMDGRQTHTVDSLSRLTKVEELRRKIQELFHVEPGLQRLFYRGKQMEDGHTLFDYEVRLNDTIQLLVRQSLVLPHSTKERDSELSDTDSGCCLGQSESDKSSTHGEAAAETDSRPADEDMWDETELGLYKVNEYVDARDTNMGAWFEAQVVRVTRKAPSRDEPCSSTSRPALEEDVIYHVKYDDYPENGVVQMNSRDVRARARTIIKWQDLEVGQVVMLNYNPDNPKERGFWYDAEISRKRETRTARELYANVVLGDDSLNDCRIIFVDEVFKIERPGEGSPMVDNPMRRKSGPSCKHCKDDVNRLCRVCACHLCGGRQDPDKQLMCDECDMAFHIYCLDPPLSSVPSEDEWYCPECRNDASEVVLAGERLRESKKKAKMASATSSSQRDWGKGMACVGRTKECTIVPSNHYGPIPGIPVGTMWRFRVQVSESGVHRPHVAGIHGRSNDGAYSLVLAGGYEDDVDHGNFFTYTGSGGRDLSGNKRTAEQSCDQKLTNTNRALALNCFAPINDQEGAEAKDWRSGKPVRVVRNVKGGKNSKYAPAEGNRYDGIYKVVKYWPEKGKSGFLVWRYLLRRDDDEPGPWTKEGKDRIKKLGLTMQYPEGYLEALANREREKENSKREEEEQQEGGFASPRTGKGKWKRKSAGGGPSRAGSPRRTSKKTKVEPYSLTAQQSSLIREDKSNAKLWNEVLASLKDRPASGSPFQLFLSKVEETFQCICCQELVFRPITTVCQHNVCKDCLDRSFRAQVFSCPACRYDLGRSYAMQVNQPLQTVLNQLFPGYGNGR", "assay": "Counterscreen for inhibitors of 5-meCpG-binding domain protein 2 (MBD2): TRFRET-based biochemical high throughput dose response assay to identify inhibitors of binding of ubiquitin-like with PHD and ring finger domains 1 (UHRF1) to methylated oligonucleotide."}, "[12]": {"assay": "reduction of Shn3 3'UTR-driven luciferase in osteoblasts – cell-based, Clone20 osteoblasts, firefly luciferase, cherry-picked, dose response (AID 624132)", "type": "functional"}, "[13]": {"assay": "IC50 of insulin release inhibition, rat insulinoma INS-1E line, 5 mM glucose, cell-based (AID 1117331)", "type": "functional"}}, "note": "The source made the active and inactive calls.", "data": [{"smiles": "C(=N\\Nc1nc2ccccc2s1)/c1cccs1", "values": [{"measurement": "EC50", "setting": "[1]", "result": "> 67.5 µM (inactive)"}, {"measurement": "IC50", "setting": "[2]", "result": "> 67.5 µM (inactive)"}]}, {"smiles": "COc1ccc(S(=O)(=O)Nc2cc(C(F)(F)F)ccc2N2CCCCC2)cc1", "values": [{"measurement": "AC50", "setting": "[3]", "result": "33.8 µM (active)"}, {"measurement": "AC50", "setting": "[4]", "result": "46 µM (active)"}]}, {"smiles": "CCCCC1(C)NC(=O)c2c(C)sc(C(=O)OCC)c2N1", "note": "(stereo not given)", "values": [{"measurement": "IC50", "setting": "[5]", "result": "> 109 µM (inactive)"}, {"measurement": "AC50", "setting": "Cytochrome P450 1A2", "result": "14.1 µM (inconclusive)"}, {"measurement": "IC50", "setting": "[6]", "result": "> 83.3 µM (inactive)"}, {"measurement": "AC50", "setting": "Cytochrome P450 2C19", "result": "2.24 µM (inconclusive)"}]}, {"smiles": "COc1ccc(C(=O)NCCN(C)C)c2nc3ccccc3cc12", "values": [{"measurement": "AC50", "setting": "[7]", "result": "5.16 µM (active)"}, {"measurement": "EC50", "setting": "HEK293 [8]", "result": "> 59.5 µM (inactive)"}, {"measurement": "EC50", "setting": "HEK293 [9]", "result": "> 59.5 µM (inactive)"}, {"measurement": "AC50", "setting": "[10]", "result": "1.04 µM (active)"}, {"measurement": "IC50", "setting": "[11]", "result": "9.07 µM (active)"}, {"measurement": "AC50", "setting": "[12]", "result": "5.78 µM (active)"}]}, {"smiles": "Cc1cc(-n2nc3ccc(Cl)cc3n2)c(O)c(C(C)(C)C)c1", "note": "[BUMETRIZOLE]", "values": [{"measurement": "IC50", "setting": "[13]", "result": "> 33.3 µM (inactive)"}]}]}
